Literature values in patent publication US20110305654A1, “ANHYDROUS PETROLEUM JELLY/ELASTOMER-FREE DEPIGMENTING COMPOSITIONS COMPRISING A SOLUBILIZED PHENOLIC COMPOUND” (Galderma Research & Development, priority 2008, published 2011).
Read-outs that look alike come from different tables or passages of the source.

Oc1ccc(O)cc1 [hydroquinone]
Irritation (10% concentrations): relatively high
Irritation (concentration of 2%): virtually nonexistent
Irritation (preparations with a 5% dose): reduces greatly
